Source: paper PMC8864676 (Organic & biomolecular chemistry, 2022)
Values joined by “and” are separate entries in the source; they are usually repeats but may differ in a detail not shown here. Identical values can stand only once.

Key:
[1] = molecular target: T1, PutA86–630 (PRODH domain of proline utilization A) (Escherichia coli, UniProt P09546); assay: Initial single-point screening of compounds for inhibition of PRODH activity; type: biochemical; details: for inhibition at 5000 µM: read-out: inhibition in the single-point assay; for inhibition in the single-point assay (in words): 13, 15, 16 compared with 1
T1 sequence (P09546 86-630): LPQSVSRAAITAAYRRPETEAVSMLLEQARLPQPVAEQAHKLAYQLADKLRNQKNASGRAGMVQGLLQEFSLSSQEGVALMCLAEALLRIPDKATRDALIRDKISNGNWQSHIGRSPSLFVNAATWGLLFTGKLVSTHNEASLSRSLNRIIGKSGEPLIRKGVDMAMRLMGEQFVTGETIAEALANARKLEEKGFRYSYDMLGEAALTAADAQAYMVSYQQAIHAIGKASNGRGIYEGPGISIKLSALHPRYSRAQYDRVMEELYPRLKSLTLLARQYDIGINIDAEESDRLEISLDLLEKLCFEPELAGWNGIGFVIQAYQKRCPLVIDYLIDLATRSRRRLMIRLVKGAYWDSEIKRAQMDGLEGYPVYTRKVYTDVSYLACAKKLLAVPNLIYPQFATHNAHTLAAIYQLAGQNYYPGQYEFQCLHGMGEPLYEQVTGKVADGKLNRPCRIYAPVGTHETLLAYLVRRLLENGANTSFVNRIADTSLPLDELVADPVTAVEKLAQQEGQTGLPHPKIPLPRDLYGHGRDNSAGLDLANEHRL

[2] = molecular target: T1, PutA86–630 (PRODH domain of proline utilization A); type: biochemical; details: for kcat: kcat of PutA86–630 from the global fit of the data set with this inhibitor; for ΔΔG, loss of binding energy relative to 1 / fold change in Ki relative to 1: chemical double mutant cycle; for fold change in Ki relative to 1: from Ki values
[3] = molecular target: PRODH; details: cited from earlier work
[4] = 5 mM inhibitor, 200 mM L-proline

Compound: O=C(O)C1CCC1 [Compound 3, cyclobutanecarboxylic acid]
- reduction of enzyme activity relative to the no-inhibitor control [1, 4]: over 2 fold
- inhibition at 5000 µM [1]: > 50%
- ΔΔG, improvement of affinity relative to 16 ([2]; cyclopentane of 16 decreased to cyclobutane, calculated from Ki values): 0.71 kcal/mol and 0.7 kcal/mol
- kcat [2]: 1.47 ± 0.05 s⁻¹
- ΔΔG, loss of binding energy relative to 18 ([2]; removing the O heteroatom from 18, calculated from Ki values): about 0.2 kcal/mol

Compound: O=C(O)C1CC1 [Compound 4, cyclopropanecarboxylic acid]
- kcat [2]: 1.20 ± 0.03 s⁻¹
- ΔΔG, decrease of affinity relative to 3 ([2]; ring size decreased from cyclobutane to cyclopropane, calculated from Ki values): 0.3 kcal/mol

Compound: O=C1CC(C(=O)O)C1 [Compound 10, 3-oxocyclobutanecarboxylic acid]
- inhibition in the single-point assay (in words) [1, 4]: very little inhibition

Compound: NC(=O)[C@@H]1CCCO1 [Compound 13, (S)-(−)-tetrahydrofuran-2-carboxamide]
- inhibition in the single-point assay (in words) [1, 4]: decreases inhibition

Compound: O=C(O)C1CCCCO1 (centres unmarked) [Compound 15, tetrahydropyran-2-carboxylic acid]
- inhibition in the single-point assay (in words) [1, 4]: severely decreases inhibition

Compound: O=C(O)C1CCCC1 [Compound 16, cyclopentanecarboxylic acid]
- inhibition in the single-point assay (in words) [1, 4]: severely decreases inhibition
- ΔΔG, loss of binding energy relative to 1 ([2]; calculated from Ki values): ~2 kcal/mol
- fold change in Ki relative to 1 [2]: 20 fold
- kcat [2]: 1.35 ± 0.04 s⁻¹

Compound: CCC(=O)C(=O)O [Compound 17, 2-oxobutyric acid]
- inhibition at 5000 µM [1]: > 50%
- kcat [2]: 1.14 ± 0.02 s⁻¹

Compound: O=C(O)[C@@H]1CCO1 [Compound 18, (2S)-oxetane-2-carboxylic acid]
- reduction of enzyme activity relative to the no-inhibitor control [1, 4]: over 2 fold
- inhibition at 5000 µM [1]: > 50%
- ΔΔG, loss of binding energy relative to 1 ([2]; calculated from Ki values): 0.95 kcal/mol
- fold change in Ki relative to 1 [2]: 5 fold
- kcat [2]: 1.42 ± 0.04 s⁻¹

Compound: C[C@H](O)C(=O)O [L-lactic acid]
- Ki [3]: ~1000 µM

Compound: CC(=O)O [acetic acid]
- Ki [3]: ~30000 µM

Compound: (S)-(−)-tetrahydro-2-furoic acid [Compound 1, reference compound]
- enzyme activity relative to the no-inhibitor control [1, 4]: 12%
- Ki [3]: 200 to 1000 µM
- kcat [2]: 1.16 ± 0.03 s⁻¹
